Measured values reported in patent US9540323B2 (BRISTOL-MYERS SQUIBB COMPANY, priority 2012, dated 2017).

How the values were obtained:
[1] = test system: human platelet rich plasma (PRP); assay: ADP induced platelet aggregation assay; conditions: Homo sapiens, Platelet, 5 min, read-out: PA IC50 (μM) @ 10 μM ADP, human PRP, 10 μM ADP, AUC at 5 minute
[2] = target: cloned human P2Y1 receptors (Homo sapiens (Human), UniProt P47900); assay: Binding Assay B - Scintillation Proximity Assay (SPA) for P2Y1 binding, [33P] 2MeS-ADP; conditions: SPA, 0.3 nM [33P] 2MeS-ADP, Cheng-Prusoff; read-out: P2Y1 Ki (nM) using binding assay B
Method: Binding Assay B—Scintillation Proximity Assay (SPA) for P2Y1 Binding
A SPA membrane binding assay was used to identify inhibitors of [^33P] […] Reactions were allowed to proceed to completion at room temperature for 1 hour followed by centrifugation of the plate for 5 min. About 40 μL of the aqueous solution was aspirated. Plates were sealed and the [^33P]

Sequence of cloned human P2Y1 receptors (P47900 whole entry): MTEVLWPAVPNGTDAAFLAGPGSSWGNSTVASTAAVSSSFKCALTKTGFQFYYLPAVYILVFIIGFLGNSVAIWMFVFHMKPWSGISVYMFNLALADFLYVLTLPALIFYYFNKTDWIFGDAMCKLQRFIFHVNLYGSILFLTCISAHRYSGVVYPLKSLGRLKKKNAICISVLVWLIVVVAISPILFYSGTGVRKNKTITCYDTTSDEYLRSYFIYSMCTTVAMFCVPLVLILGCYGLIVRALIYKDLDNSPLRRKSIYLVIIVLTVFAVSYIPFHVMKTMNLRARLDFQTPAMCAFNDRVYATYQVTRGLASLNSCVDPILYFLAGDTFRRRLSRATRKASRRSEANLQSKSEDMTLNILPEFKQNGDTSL

SMILES	IC50 [1]	Ki [2]
CC(C)CN1CCCC1c1ccc(NC(=O)Nc2ccccc2N2CC(C)(C)c3c(F)ccc(O)c32)cc1 (centres unmarked) [Example 34, 1-(2-(4-Fluoro-7-hydroxy-3,3-dimethylindolin-1-yl)phenyl)-3-(4-(1-isobutylpyrrolidin-2-yl)phenyl)urea]	1.07 µM	9.8 nM
CCC1(CC)CN(c2ccccc2NC(=O)Nc2ccc(OC(F)(F)F)cc2)c2c1ccc(F)c2O [Example 35, 1-(2-(3,3-Diethyl-6-fluoro-7-hydroxyindolin-1-yl)phenyl)-3-(4-(trifluoromethoxy)phenyl)urea]	0.38 µM	13.8 nM
CCC1(CC)CN(c2ccccc2NC(=O)Nc2ccc(C3CCN(CC(C)(C)C)CC3)cc2)c2c1ccc(F)c2O [Example 37, 1-(2-(3,3-Diethyl-6-fluoro-7-hydroxyindolin-1-yl)phenyl)-3-(4-(1-neopentylpiperidin-4-yl)phenyl)urea]	0.89 µM	8.7 nM
CCC1(CC)CN(c2ccccc2NC(=O)Nc2ccc(C(C)(C)C)cc2)c2c1ccc(F)c2O [Example 38, 1-(4-tert-Butylphenyl)-3-(2-(3,3-diethyl-6-fluoro-7-hydroxyindolin-1-yl)phenyl)urea]	0.43 µM	14.8 nM
CCC1(CC)CN(c2ccccc2NC(=O)Nc2ccc(OC(F)(F)F)cc2)c2c(O)ccc(Br)c21 [Example 39, 1-(2-(3,3-Diethyl-4-bromo-7-hydroxyindolin-1-yl)phenyl)-3-(4-(trifluoromethoxy)phenyl)urea]	0.51 µM	18.8 nM
CC1(C)CN(c2ccccc2NC(=O)Nc2ccc(OC(F)(F)F)cc2)c2c(O)ccc(Br)c21 [Example 40, 1-(2-(4-Bromo-7-hydroxy-3,3-dimethylindolin-1-yl)phenyl)-3-(4-(trifluoromethoxy)phenyl)urea]	0.53 µM	13.8 nM
CC1(C)CN(c2ccccc2NC(=O)Nc2nc3ccc(Cl)cc3s2)c2c(O)ccc(Br)c21 [Example 41, 1-(2-(4-Bromo-7-hydroxy-3,3-dimethylindolin-1-yl)phenyl)-3-(6-chlorobenzo[d]thiazol-2-yl)urea]	0.47 µM	10.6 nM
CC1(C)CN(c2ccccc2NC(=O)Nc2nc3ccc(Br)cc3s2)c2c(O)ccc(Br)c21 [Example 42, 1-(2-(4-Bromo-7-hydroxy-3,3-dimethylindolin-1-yl)phenyl)-3-(6-bromobenzo[d]thiazol-2-yl)urea]	0.45 µM	27.7 nM
CCC1(CC)CN(c2ccccc2NC(=O)Nc2ccc(OC(F)(F)F)cc2)c2c(O)ccc(C#N)c21 [Example 43, 1-(2-(3,3-Diethyl-4-cyano-7-hydroxyindolin-1-yl)phenyl)-3-(4-(trifluoromethoxy)phenyl)urea]	0.47 µM	7.8 nM
CCC1(CC)CN(c2ccccc2NC(=O)Nc2ccc(C(C)(C)C)cc2)c2c(O)ccc(C#N)c21 [Example 44, 1-(4-tert-Butylphenyl)-3-(2-(4-cyano-3,3-diethyl-7-hydroxyindolin-1-yl)phenyl)urea]	0.45 µM	6.9 nM
CCC1(CC)CN(c2ccccc2NC(=O)Nc2ccc(C3CCN(CC(C)(C)C)CC3)cc2)c2c(O)ccc(C#N)c21 [Example 45, 1-(2-(4-Cyano-3,3-diethyl-7-hydroxyindolin-1-yl)phenyl)-3-(4-(1-neopentylpiperidin-4-yl)phenyl)urea]	0.39 µM	6.7 nM
CCC1(CC)CN(c2ccccc2NC(=O)Nc2ccc(C3CCN(CC(C)C)CC3)cc2)c2c(O)ccc(C#N)c21 [Example 46, 1-(2-(4-Cyano-3,3-diethyl-7-hydroxyindolin-1-yl)phenyl)-3-(4-(1-isobutylpiperidin-4-yl)phenyl)urea]	1 µM	9.5 nM
CC1(C)CN(c2ccccc2NC(=O)Nc2ccc(OC(F)(F)F)cc2)c2c(O)ccc(C#N)c21 [Example 47, 1-(2-(4-Cyano-7-hydroxy-3,3-dimethylindolin-1-yl)phenyl)-3-(4-(trifluoromethoxy)phenyl)urea]	3.35 µM	18.6 nM
CCC1(CC)CN(c2ccccc2NC(=O)Nc2ccc(C3CCN(CC(C)C)CC3)cc2)c2c(O)ccc(Cl)c21 [Example 50, 1-(2-(4-Chloro-3,3-diethyl-7-hydroxyindolin-1-yl)phenyl)-3-(4-(1-isobutylpiperidin-4-yl)phenyl)urea]	0.86 µM	6.6 nM
CCC1(CC)CN(c2ccccc2NC(=O)Nc2ccc(OC(F)(F)F)cc2)c2c(O)ccc(Cl)c21 [Example 51, 1-(2-(4-Chloro-3,3-diethyl-7-hydroxyindolin-1-yl)phenyl)-3-(4-(trifluoromethoxy)phenyl)urea]	0.41 µM	14.1 nM
CCC1(CC)CN(c2ccccc2NC(=O)Nc2ccc(C(F)(F)F)cc2)c2c(O)ccc(Cl)c21 [Example 52, 1-(2-(4-Chloro-3,3-diethyl-7-hydroxyindolin-1-yl)phenyl)-3-(4-(trifluoromethyl)phenyl) urea]	0.28 µM	12.6 nM

SMILES	IC50 [1]	Ki [2]
CCC1(CC)CN(c2ccccc2NC(=O)Nc2csc(Cl)n2)c2c(O)ccc(Cl)c21 [Example 53, 1-(2-(4-Chloro-3,3-diethyl-7-hydroxyindolin-1-yl)phenyl)-3-(2-chlorothiazol-4-yl)urea]	0.28 µM	5 nM
CCC1(CC)CN(c2ccccc2NC(=O)Nc2nc3c(s2)CN(CC(C)C)CC3)c2c(O)ccc(Cl)c21 [Example 54, 1-(2-(4-Chloro-3,3-diethyl-7-hydroxyindolin-1-yl)phenyl)-3-(5-isobutyl-4,5,6,7-tetrahydrothiazolo[5,4-c]pyridin-2-yl)urea]	0.15 µM	13.3 nM
CCC1(CC)CN(c2ccccc2NC(=O)Nc2nc3c(s2)CN(CC(F)(F)F)CC3)c2c(O)ccc(Cl)c21 [Example 55, 1-(2-(4-Chloro-3,3-diethyl-7-hydroxyindolin-1-yl)phenyl)-3-(5-(2,2,2-trifluoroethyl)-4,5,6,7-tetrahydrothiazolo[5,4-c]pyridin-2-yl)urea]	0.63 µM	16.2 nM
CC1(C)CN(c2ccccc2NC(=O)Nc2ccc(OC(F)(F)F)cc2)c2c(O)ccc(Cl)c21 [Example 56, 1-(2-(4-Chloro-7-hydroxy-3,3-dimethylindolin-1-yl)phenyl)-3-(4-(trifluoromethoxy)phenyl)urea]	0.87 µM	8.7 nM
CC1(C)CN(c2ccccc2NC(=O)Nc2ccc(C(F)(F)F)cc2)c2c(O)ccc(Cl)c21 [Example 57, 1-(2-(4-Chloro-7-hydroxy-3,3-dimethylindolin-1-yl)phenyl)-3-(4-(trifluoromethyl)phenyl) urea]	0.9 µM	8.3 nM
CC1(C)CN(c2ccccc2NC(=O)Nc2csc(Cl)n2)c2c(O)ccc(Cl)c21 [Example 58, 1-(2-(4-Chloro-7-hydroxy-3,3-dimethylindolin-1-yl)phenyl)-3-(2-chlorothiazol-4-yl)urea]	0.32 µM	4.1 nM
CC1(C)CN(c2cc(F)ccc2NC(=O)Nc2ccc(F)cc2F)c2c(O)ccc(C(F)(F)F)c21 [Example 59, 1-(2,4-Difluorophenyl)-3-(4-fluoro-2-(7-hydroxy-3,3-dimethyl-4-(trifluoromethyl)indolin-1-yl)phenyl)urea]	0.24 µM	5.7 nM
CC1(C)CN(c2ccc(F)cc2NC(=O)Nc2ccc(F)cc2F)c2c(O)ccc(C(F)(F)F)c21 [Example 60, 1-(2,4-Difluorophenyl)-3-(5-fluoro-2-(7-hydroxy-3,3-dimethyl-4-(trifluoromethyl)indolin-1-yl)phenyl)urea]	0.62 µM	10.6 nM
CC1(C)CN(c2cccc(F)c2NC(=O)Nc2ccc(F)cc2F)c2c(O)ccc(C(F)(F)F)c21 [Example 61, 1-(2,4-Difluorophenyl)-3-(2-fluoro-6-(7-hydroxy-3,3-dimethyl-4-(trifluoromethyl)indolin-1-yl)phenyl)urea]	0.54 µM	5.2 nM
CC1(C)CN(c2c(F)cccc2NC(=O)Nc2ccc(F)cc2F)c2c(O)ccc(C(F)(F)F)c21 [Example 62, 1-(2,4-Difluorophenyl)-3-(3-fluoro-2-(7-hydroxy-3,3-dimethyl-4-(trifluoromethyl)indolin-1-yl)phenyl)urea]	0.75 µM	14.6 nM
CC1(C)CN(c2ccc(F)cc2NC(=O)Nc2nc3ccc(F)cc3s2)c2c(O)ccc(C(F)(F)F)c21 [Example 63, 1-(5-Fluoro-2-(7-hydroxy-3,3-dimethyl-4-(trifluoromethyl)indolin-1-yl)phenyl)-3-(6-fluorobenzo[d]thiazol-2-yl)urea]	0.18 µM	20.8 nM
CC1(C)CN(c2cc(F)ccc2NC(=O)Nc2nc3ccc(F)cc3s2)c2c(O)ccc(C(F)(F)F)c21 [Example 64, 1-(4-Fluoro-2-(7-hydroxy-3,3-dimethyl-4-(trifluoromethyl)indolin-1-yl)phenyl)-3-(6-fluorobenzo[d]thiazol-2-yl)urea]	0.21 µM	13 nM
CC1(C)CN(c2ccccc2NC(=O)Nc2ccc(OC(F)(F)F)cc2)c2c(O)c(F)cc(Cl)c21 [Example 65, 1-(2-(4-Chloro-6-fluoro-7-hydroxy-3,3-dimethylindolin-1-yl)phenyl)-3-(4-(trifluoromethoxy)phenyl)urea]	0.83 µM	14.1 nM
CC1(C)CN(c2ccccc2NC(=O)Nc2nc3ccc(Cl)cc3s2)c2c(O)c(F)cc(Br)c21 [Example 66, 1-(2-(4-Bromo-6-fluoro-7-hydroxy-3,3-dimethylindolin-1-yl)phenyl)-3-(6-chlorobenzo[d]thiazol-2-yl)urea]	0.75 µM	21.3 nM
CC1(C)CN(c2ccccc2NC(=O)Nc2nc3ccc(F)cc3s2)c2c(O)cc(F)c(Br)c21 [Example 67, 1-(2-(4-Bromo-5-fluoro-7-hydroxy-3,3-dimethylindolin-1-yl)phenyl)-3-(6-fluorobenzo[d]thiazol-2-yl)urea]	0.77 µM	13.8 nM
